# According to patent US12403115B2, “Asymmetric synthesis and uses of compounds in disease treatments” (Zhejiang Jiachi Development Pharmaceuticals LTD., priority 2017, dated 2025):
# “Also recorded” adds a separate entry of the source.
# Assays:
# [1] = test system: mice bone; experiment: Anastrozole-induced osteoporosis in mice by micro-CT (BMD, BV/TV, Tb.N); assay type: in vivo; conditions: for inhibition of anastrozole-induced osteoporosis (micro-CT): food containing drug plus equal amount of anastrozole, 6 months
# Description: (§1) Aromatase inhibitors were administrated to ER positive breast in post-menopausal women. […] It was administrated to ER positive breast cancer in post menopausal women. […] Vulvovagina atrophy usually results in infection of vagina and urinary tract. As an example, we tested whether α-anordrin or β-anordrin eliminates anastrozole-induced uterus and vulvovagina atrophy, and osteoporosis. […] Mice were then sacrificed to harvest vagina, leg and spine bone. The tissues were fixed in paraformaldehyde.
# (§2) Thighbone was fixed in 1×DPBS containing 3% formaldehyde for two weeks. The fixation solution was exchanged after one week. The density of thighbone was measured by Siemens Inveon Micro-CT. Inveon Research Workplace (IRW) was used to analyze the HU2000 value at the following measurement conditions: 80 KVP, […], 1500 ms exposure time; CCD Readout installation: 2048axial, 2048 binning; FOV Transaxial: 19.03 mm, axial: 19.03 mm, pixels size: 9.29 μm.
# [2] = test system: OVX female mice; experiment: OVX mice: TG accumulation in liver (H&E sections, liver TG); assay type: in vivo; conditions: given by food
# Experimental: (§3) In this Example, studies have been shown the estrogenic effects of α- and β-anordrins on estrogen-modulated metabolic signaling and tissue atrophy. The ovaries of 7 week old mice were surgically excised. One week post surgery, the mice were given isoflavone, α-anordrin or β-anordrin by food. Body mass, blood glucose and food intake were measured monthly. After three months. Mice were sacrificed. The leg and spine bone, liver, uterus and vagina were harvested.
# (§4) The ovaries of 6 week old mice were excised by surgery. 3 days post surgery drugs were administered by gastric tract injection every day or mixed with food.
# The error was corrected by using internal standard controls.
# [3] = test system: OVX female mice; experiment: OVX mice: blood glucose, blood TG, body mass and food uptake; assay type: in vivo
# Experimental: as §3
# glucose concentration in medium or total blood from mouse tail was measured using glucose assay kits following manufacturer's instructions (Yicheng, Beijing).
# as §4
# [4] = test system: OVX female mice; experiment: OVX mice: vulvovagina atrophy (vagina wet mass, H&E sections, thickness of vulvovagina wall); assay type: in vivo; conditions: given by food, three months
# Experimental: as §3, §4
# (§5) Vagina was cut at the middle site. Both uterine site and vulvovaginal site were embedded in paraffin at the same direction for H&E section preparation. The thickness of vulvovaginal wall was measured from 40× magnification images of Paraffin-embedded H&E mice vagina sections.
# [5] = test system: OVX female mice; experiment: OVX mice: uterus atrophy (uterine wet mass, H&E sections); assay type: in vivo; conditions: three months
# Experimental: as §3, §4
# [6] = test system: OVX female mice; experiment: OVX mice: osteoporosis by micro-CT (BMD, BV/TV); assay type: in vivo; conditions: for prevention of osteoporosis (micro-CT): OVX mice, given by food, three months
# Experimental: as §3, §4, §2
# [7] = test system: mouse vagina; experiment: Anastrozole-induced vagina atrophy in mice (vagina wet mass, H&E sections); assay type: in vivo; conditions: food containing drug plus equal amount of anastrozole, 6 months
# Description: as §1, §5
# [8] = test system: mice uterus EECs
# Experimental: (§6) Tamoxifen was the first FDA-approved drug for breast cancer patients with positively expressed ER. […] We further tested whether α-anordrin or β-anordrin eliminates tamoxifen-induced EEC mitosis. […] Mice were then sacrificed to harvest uterus and liver. Uterine and liver tissues were fixed.
# (§7) The tissue of mice was excised by surgery and fixed using 4% paraformaldehyde in 1×DPBS (Beijing Solar Bioscience & Technology co., Ltd). Paraffin section preparation and HE staining was performed by GLP laboratory of BK animal model, Inc.
# EEC height was measured from 20-200× magnification EEC images of Paraffin-embedded H&E mice uterus sections.
# [9] = test system: mouse liver
# Experimental: as §6, §7
# 30-50 mg of mouse liver was excised by surgery and homogenized in 1 ml Cholroform:Methanol (2:1) mixture and extracted using 0.5 ml ddH2O. The organic phase was transferred to new tubes and air dried. The amount of TG was measured using kits following manufacturer's instructions. The error was corrected by using internal standard controls.
# [10] = test system: endometrial epithelial cell (EEC); conditions: earlier finding of the applicants, no method given here (cf. reference 21); cited from earlier work
# [11] = combination with equal amount of anastrozole, micro-CT
# [12] = mice, food containing drug plus tamoxifen, 6 months
smiles,measurement,setting,value
"C#C[C@@]1(OC(=O)CC)CC2CCC3C(CC[C@@]4(C)C3CC[C@]4(C#C)OC(=O)CC)[C@@]2(C)C1 (single isomer, unassigned) [α-anordrin, (2α,17α)-diethynyl-(2β, 17β)-diol-dipropionate-A-nor-5α-androstane]",inhibition of anastrozole-induced decrease of BV/TV,[1]; [11],inhibits anastrozole-induced the ratio decreasing of bone volume (BV)/bone trabecular volume (TV) (BV/TV)
same,inhibition of anastrozole-induced decrease of bone trabecula number (Tb.N),[1]; [11],inhibits anastrozole-induced the decreasing of bone trabecula number (Tb.N)
same,inhibition of anastrozole-induced loss of bone mean density (BMD),[1]; [11],inhibits anastrozole-induced the loss of bone mean density (BMD)
same,inhibition of anastrozole-induced osteoporosis (micro-CT),[1],inhibited anastrozole-induced osteoporosis; also recorded: inhibits anastrozole-induced osteoporosis in bone
same,amount of liver TG (liver H&E section and statistical analysis),[2],decreased the amount of liver TG; also recorded: dosage dependent activity to prevent TG accumulation in liver
same,body mass,[3]; after administration of drugs by food,less and dosage dependent activity to decrease
same,blood glucose,[3]; given by food,less and dosage dependent activity to decrease
same,blood triglyceride (TG),[3]; given by food,less and dosage dependent activity to decrease
same,prevention of vulvovagina atrophy (uterus and vagina wet mass and H&E staining),[4],prevented vulvovagina atrophy; also recorded: dosage dependent activity to prevent the atrophy of vulvovagina
same,prevention of uterus atrophy,"[5]; OVX female mice, lower dosage, compared with sham group",did not prevent the uterus atrophy
same,atrophy symptom in uterus,"[5]; OVX mice, given by food",less atrophy symptom in uterus compared with those mice treated by β-anordrin and blank groups
same,prevention of the decrease of bone volume (BV)/bone trabecula volume (TV) ratio (BV/TV),"[6]; OVX female mice, micro-CT",more activity to prevent the ratio decreasing of bone volume (BV)/bone trabecula volume (TV) (BV/TV) compared with β-anordrin
same,prevention of the loss of bone mean density (BMD),"[6]; OVX female mice, micro-CT",more activity to prevent the loss of bone mean density (BMD) compared with β-anordrin
same,prevention of osteoporosis (micro-CT),[6],prevented osteoporosis; also recorded: more actively to prevent the osteoporosis compared with β-anordrin
same,"inhibition of anastrozole-induced vagina atrophy (vagina wet mass, H&E sections)",[7],inhibits anastrozole-induced vagina atrophy
"CC/C(=C(\c1ccccc1)c1ccc(OCCN(C)C)cc1)c1ccccc1 [TAM, tamoxifen, reference compound]",appearance of EECs in H&E staining sections,"[8]; mouse, in vivo",rough and mitotic
same,fatty deposition in liver cells (H&E staining sections),"[9]; mouse, in vivo",high fatty deposition in liver cells
C#C[C@@]1(OC(=O)CC)C[C@@H]2CC[C@@H]3[C@H](CC[C@@]4(C)[C@H]3CC[C@]4(C#C)OC(=O)CC)[C@@]2(C)C1 [anordrin],elimination of tamoxifen-induced endometrial epithelial cell (EEC) mitosis,[10],can eliminate tamoxifen-induced endometrial epithelial cell (EEC) mitosis
"C#C[C@]1(OC(=O)CC)C[C@@H]2CC[C@@H]3[C@H](CC[C@@]4(C)[C@H]3CC[C@]4(C#C)OC(=O)CC)[C@@]2(C)C1 [β-anordrin, (2β,17α)-diethynyl-(2α,17β)-diol-dipropionate-A-nor-5α-androstane, reference compound]",inhibition of anastrozole-induced osteoporosis (micro-CT),[1],not β-anordrin inhibited anastrozole-induced osteoporosis
same,amount of liver TG (liver H&E section and statistical analysis),[2],not β-anordrin decreased the amount of liver TG
same,inhibition of tamoxifen-induced EEC mitosis,[8]; [12],not β-anordrin inhibited tamoxifen-induced EEC mitosis
same,inhibition of tamoxifen-induced NASH,[9]; [12],not β-anordrin inhibited
same,prevention of vulvovagina atrophy (uterus and vagina wet mass and H&E staining),[4],not β-anordrin prevented vulvovagina atrophy
same,prevention of osteoporosis (micro-CT),[6],not 3-anordrin prevented osteoporosis
same,"inhibition of anastrozole-induced vagina atrophy (vagina wet mass, H&E sections)",[7],not β-anordrin inhibited anastrozole-induced vagina atrophy
